{"source": "patent US20140315972A1", "about": "“RS)-2-(2-oxo-4-phenylpyrrolidin-1-yl)acetamide compound having modulatory activity with a commensurate effect, pharmaceutical substance (variants) and its application, composition (variants) thereof” (priority 2011, published 2014)", "key": {"rats [1]": {"tested_on": "rats", "assay": "Hypotensive activity in rats (cannula in carotid artery)", "format": "in vivo", "conditions": "adult rats; i.p. and intragastric 50-100 mg/kg; one hour after administration", "procedure": "Study of the effect of Phenotropil on cerebral blood flow, systemic blood pressure (BP) and the nervous regulation of blood circulation was made on 6 anesthetized cats under general anesthesia (urethane+chloralose). Phenotropil was administered intravenously at a dose of 50 mg/kg with distilled water; the baseline state of each animal prior to drug administration served as control. Cerebral blood flow was recorded in the common carotid artery (CCA) by an electromagnetic meter. The nervous regulation of cerebral circulation was judged by the vasomotor pressor reflex (VPR). The results of the experiment show (Table 6.1) that the racemic compound causes a moderate increase in cerebral blood flow in anesthetized animals. The cerebrovascular effect is accompanied by vascular hypotension with manifestation of oppression of the vasomotor reflex. The biphasic behaviour of SBP is consistent with the pattern of the effect on TSIP under no abnormalities with stabilization of the normotonic state. At intraperitoneal and intragastric administration of Phenotropil (25-300 mg/kg) to white outbred adult rats of both sexes, hypotensive activity (by blood method through the cannula connected to the carotid artery) was manifested one hour after administration at doses of 50-100 mg/kg and was in average 13%±2.85, while with increasing doses this effect disappears. […]"}, "women": {"tested_on": "women", "assay": "Skin aging, vessels and joints, topical solution and creams", "format": "in vivo, human", "conditions": "for Efficacy in % relative to baseline control (skin aging) / Efficacy in % (skin aging) / Efficacy expressed in % (age-related changes of blood vessels and joints) / Efficacy expressed in % (skin aging): humans, topical course; for Efficacy in % (skin aging): baseline control = 100.0; for Efficacy expressed in % (age-related changes of blood vessels and joints) / Efficacy expressed in % (skin aging): baseline control = 100", "procedure": "Example 24 presents the results of research of Phenotropil as parapharmaceutic—cosmeceutical agents in women (age 53-60 years) and as a standard solution. The 0.1% water solution (distilled water) of Phenotropil and placebo was prepared; for convenience of preparing therapeutic cream formulation, the standard composition of cream base was used, or actual creams “Vecher”, “Lux” and “Gerantol” manufactured by “Svoboda” (Russia) were used as the base, with 100, 200, 300 mg of Phenotropil per 100 g of finished compositions to prepare a cosmeceutical agent. The cosmeceutical formulations were prepared with the powder of Compound 1 sifted and well ground in a mortar.\nAt baseline examination, main indicators of the skin condition of the hands and face in the groups were recorded, integral index for aggregate characteristics was calculated (dryness, wrinkling, superficial vascular fascicles, the intensity of subcutaneous vascular pattern, pigmentation—the intensity of color, the number of pigment spots and their total area). Preliminarily, each subject was tested for allergic skin reaction with the most concentrated formulation. No allergic reactions have been identified. In one group, only solution of Phenotropil was used in the morning and evening, applying a small amount (like a regular lotion) of the solution on cosmetic cotton pads and wiping the face and hands. In the other groups, this procedure was carried out before applying the Phenotropil-containing cream. The results of the baseline evaluation in each group were taken for 100.0%."}, "rats [2]": {"tested_on": "rats", "assay": "Hemorrhagic stroke (intracerebral post-traumatic hematoma), McGrow scale", "format": "in vivo", "source_text": "The stroke condition was simulated in male rats (270-320 g) at a local cerebral hemorrhage, as a hemorrhagic stroke (intracerebral post-traumatic hematoma) by the method of A. N. Makarenko et al (1990) and at cerebral ischemia with distal occlusion of the middle cerebral artery (Chen S. T., Hsu C. Y., Hogan E. L., Maricq H., Balentine J. D. A model of focal ischemic stroke in the rat reproducible extensive cortical infarction//Stroke.—1989, V. 17, No 4, p. 738-743) as an ischemic stroke. Phenotropil was injected intraperitoneally at hemorrhagic stroke at 100 mg/kg immediately after surgery, and one hour before and two hours after the surgery (at doses of 100, 200 and 300 mg/kg) at ischemic stroke. Control animals were treated adequately with distilled water."}, "rats [3]": {"tested_on": "rats", "assay": "Formalin induced edema, topical application", "format": "in vivo", "procedure": "(§1) To identify and assess the anti-inflammatory action of Phenotropil, a standard technique was used; the carrageenan-induced paw edema in rats (Winter C. et al, 1962). Phenotropil at a dose of 100 mg/kg was administered intragastrically 60 minutes before carrageenan. Control animals received distilled water. Additionally, the topical application by method of formalin induced edema was investigated (subplantar administration of 0.1 ml of 2% formalin solution). Phenotropil for topical use was prepared (1:1) on the standard ointment base carrier at 100 mg/kg of body weight for each animal (150-220 g). The preparation was rubbed in the leg and a gauze patch was applied for 2 hours and 1 hour before the induction of inflammation."}, "[4]": {"assay": "Daily diuresis in non-obese humans", "format": "in vivo, human", "conditions": "for Daily urine volume (ml/day, %): adult humans, background (not treated) = 100", "procedure": "The effect of Phenotropil (25, 50 and 100 mg in the morning) on diuresis was investigated in non-obese groups (males and females 23-47 years) for 10 days. The daily volume of urine when treated with placebo and Phenotropil was recorded."}, "mice": {"tested_on": "mice", "assay": "Conflict situation (tranquilizing effect)", "format": "in vivo", "conditions": "300 mg/kg", "procedure": "The tranquilizing effect of Phenotropil (300 mg/kg) was studied by the method of conflict situation and conflict of two reflexes (Vogel, 1971; Sanger et al., 1991; File, 1995; Molodavkin, Voronina, 1995), associated in this case with the desire to satisfy the motivation (drinking) and application of punishment (electric shock, received after each attempt to satisfy the motivation). In the created conflict situation, the animal is experiencing a strong negative stress. Tranquilizers reduce the level of anxiety and psychoemotional stress."}, "rats [5]": {"tested_on": "rats", "assay": "Carrageenan-induced paw edema", "format": "in vivo", "conditions": "100 mg/kg intragastrically 60 minutes before carrageenan", "procedure": "as §1"}, "[6]": {"conditions": "rats, hemorrhagic stroke, 100 mg/kg i.p., 1 day after surgery"}}, "note": "Marks after values point to notes of the source that are not given here.", "data": [{"smiles": "NC(=O)CN1CC(c2ccccc2)CC1=O", "note": "(racemic) [Compound 1, (RS)-2-(2-oxo-4-phenylpyrrolidine-1-yl)acetamide]", "values": [{"measurement": "hypotensive activity, average", "setting": "rats [1]", "result": "13%±2.85"}, {"measurement": "subjects with mild morning facial swelling", "setting": "women; cream applied less than two hours before bedtime", "result": 18.0, "unit": "%"}, {"measurement": "Efficacy in % relative to baseline control (skin aging)", "setting": "women; 50 mg + “Gerantol” cream 100 g", "result": "132.0 * %"}, {"measurement": "Efficacy in % (skin aging)", "setting": "women; 50 mg + “Lux” cream 100 g", "result": "167.0 * %"}, {"measurement": "Efficacy expressed in % (age-related changes of blood vessels and joints)", "setting": "women; 100 mg + 100 g of cream base", "result": "211* %"}, {"measurement": "Efficacy in % relative to baseline control (skin aging)", "setting": "women; 100 mg + “Gerantol” cream 100 g", "result": "205.0 * %"}, {"measurement": "Efficacy in % (skin aging)", "setting": "women; 100 mg + “Lux” cream 100 g", "result": "210.0 * %"}, {"measurement": "Efficacy expressed in % (skin aging)", "setting": "women; 100 mg + “Vecher” cream 100 g", "result": "317* %"}, {"measurement": "Efficacy expressed in % (age-related changes of blood vessels and joints)", "setting": "women; 200 mg + 100 g of cream base", "result": "219* %"}, {"measurement": "Efficacy in % relative to baseline control (skin aging)", "setting": "women; 200 mg + “Gerantol” cream 100 g", "result": "251.0 * %"}, {"measurement": "Efficacy in % (skin aging)", "setting": "women; 200 mg + “Lux” cream 100 g", "result": "240.0 * %"}, {"measurement": "Efficacy expressed in % (skin aging)", "setting": "women; 200 mg + “Vecher” cream 100 g", "result": "280* %"}, {"measurement": "Efficacy expressed in % (age-related changes of blood vessels and joints)", "setting": "women; 300 mg + 100 g of cream base", "result": "174* %"}, {"measurement": "Efficacy in % relative to baseline control (skin aging)", "setting": "women; 300 mg + “Gerantol” cream 100 g", "result": "277.0 * %"}, {"measurement": "Efficacy in % (skin aging)", "setting": "women; 300 mg + “Lux” cream 100 g", "result": "280.0 * %"}, {"measurement": "Efficacy expressed in % (skin aging)", "setting": "women; 300 mg + “Vecher” cream 100 g", "result": "249* %"}, {"measurement": "Efficacy in % (skin aging)", "setting": "women; aqueous solution 0.1%", "result": "212.0* %"}, {"measurement": "Efficacy in % (skin aging)", "setting": "women; cream, 50 mg per 100 g of the base", "result": "140.0 * %"}, {"measurement": "Efficacy in % (skin aging)", "setting": "women; cream, 100 mg per 100 g of the base", "result": "180.0 * %"}, {"measurement": "Efficacy in % (skin aging)", "setting": "women; cream, 200 mg per 100 g of the base", "result": "187.0 * %"}, {"measurement": "Efficacy in % (skin aging)", "setting": "women; cream, 300 mg per 100 g of the base", "result": "200.0 * %"}, {"measurement": "prevention of lethal outcomes, % of cases", "setting": "rats [2]; hemorrhagic and ischemic stroke in rats, follow up 14 days", "result": 100, "unit": "%"}, {"measurement": "% of animals with circling movements", "setting": "rats [2]; [6]", "result": "0* %"}, {"measurement": "% of animals with lethargy, slowness of movement", "setting": "rats [2]; [6]", "result": 30, "unit": "%"}, {"measurement": "% of animals with paralysis of 1-4 limbs", "setting": "rats [2]; [6]", "result": "0* %"}, {"measurement": "% of animals with paresis of 1-4 limbs", "setting": "rats [2]; [6]", "result": "20* %"}, {"measurement": "% of animals with weakness of limbs", "setting": "rats [2]; [6]", "result": "30* %"}, {"measurement": "Mortality", "setting": "rats [2]; [6]", "result": "0* %"}, {"measurement": "shortening of inflammation vs control", "setting": "rats [3]; topical 100 mg/kg before formalin", "result": 64.5, "unit": "%"}, {"measurement": "Effect on formalin edema vs control (100)", "setting": "rats [3]; topical 100 mg/kg, 2 hours before formalin", "result": "−79.9", "unit": "%"}, {"measurement": "increase of daily urine output, average index", "setting": "[4]; 25, 50, 100 mg in the morning, first three days", "result": "30-37%"}, {"measurement": "Daily urine volume (ml/day, %)", "setting": "[4]; 25 mg/day", "result": "130 * %"}, {"measurement": "Daily urine volume (ml/day, %)", "setting": "[4]; 50 mg/day", "result": "137 * %"}, {"measurement": "Daily urine volume (ml/day, %)", "setting": "[4]; 100 mg/day", "result": "137 * %"}, {"measurement": "fluctuations in urine output", "setting": "[4]; next 7 days", "result": "5-10%"}, {"measurement": "reduction of amount of intakes for three minutes", "setting": "mice", "result": 74.4, "unit": "%"}, {"measurement": "reduction of anxiety and emotional stress in the conflict situation vs control", "setting": "mice", "result": 291.0, "unit": "%"}, {"measurement": "Number of water intakes for 3 min", "setting": "mice; mice", "result": "7.3 ± 3.9"}, {"measurement": "The time between the first and second intake of water", "setting": "mice; mice", "result": "31.1 ± 3.4", "unit": "s"}, {"measurement": "shortening of inflammation vs control", "setting": "rats [5]", "result": 52.3, "unit": "%"}]}]}
